Measured values reported in ChEMBL document CHEMBL1159285, “Identification of 3-hydroxy-3-methylglutaric acid (HMG) as a hypoglycemic principle of Spanish moss (Tillandsia usneoides)” (J Nat Prod, 1995).
Structures can show the parent of a compound that is named as a salt.

Experiments:
Mus musculus [1] = assay: Hypoglycemic activity in Swiss-Webster mouse assessed as change plasma glucose level at 250 mg/kg, ip after 4 hrs; assay type: functional; conditions: route intraperitoneal
Artemia = assay: Toxicity in brine shrimp; assay type: organism-based; conditions: in vivo
[2] = Acute toxicity in po dosed mouse; assay type: organism-based; conditions: in vivo
[3] = Acute toxicity in ip dosed mouse; assay type: organism-based; conditions: in vivo
Homo sapiens [4] = organism: Homo sapiens; assay: Antihypercholesterolemic activity in patient with familial hypercholesterolemia assessed as decrease in plasma cholesterol at 2250 mg/day in 3 divided doses for 8 weeks; assay type: functional; parameters: scale not given: the % may be the effect or the level left
Homo sapiens [5] = organism: Homo sapiens; assay: Antihypercholesterolemic activity in patient with familial hypercholesterolemia assessed as decrease in plasma cholesterol at 3000 mg/day in 3 divided doses for 8 weeks; assay type: functional; parameters: scale not given: the % may be the effect or the level left
Homo sapiens [6] = organism: Homo sapiens; assay: Toxicity in patient with familial hypercholesterolemia at 750 to 2250 mg/day in 3 divided doses for 8 weeks; assay type: organism-based; conditions: in vivo, 1344 h
Mus musculus [7] = assay: Hypoglycemic activity in Swiss-Webster mouse assessed as change plasma glucose level at 62.5 mg/kg, ip after 4 hrs; assay type: functional; conditions: route intraperitoneal
Mus musculus [8] = assay: Hypoglycemic activity in Swiss-Webster mouse assessed as change plasma glucose level at 125 mg/kg, ip after 4 hrs; assay type: functional; conditions: route intraperitoneal

CCOC(=O)C(O)(CC(=O)O)CC(=O)O
Activity (Mus musculus [1]): -6.6%

O=C(O)CC(O)(CC(=O)O)C(=O)O [CITRIC ACID]
Activity (Mus musculus [1]): 47.3% | LC50 (Artemia): 50 ppm

COc1cc(-c2oc3cc(O[C@@H]4O[C@H](CO)[C@@H](O)[C@H](O)[C@H]4O)c(OC)c(O)c3c(=O)c2OC)cc(OC)c1O
Activity (Mus musculus [1]): -1% | LC50 (Artemia): 420 ppm

CCOC(=O)CC(O)(CC(=O)OCC)C(=O)OCC [TRIETHYL CITRATE]
Activity (Mus musculus [1]): -13.6%

CC(O)(CC(=O)O)CC(=O)O [MEGLUTOL]
Activity (Mus musculus [1]): -41.7% | LC50 (Artemia): 228 ppm | LD50 [2]: 7330 mg/kg | LD50 [3]: 3230 mg/kg | Activity (Homo sapiens [4]): 11% | Activity (Homo sapiens [5]): 13% | Activity (Homo sapiens [6]): Non-toxic | Activity (Mus musculus [7]): 7.9% | Activity (Mus musculus [8]): -21%

O=C(O)CCC(=O)O [SUCCINIC ACID]
Activity (Mus musculus [1]): 9.9% | LC50 (Artemia): 40 ppm

COC(=O)C(O)(CC(=O)O)CC(=O)O
Activity (Mus musculus [1]): -7.4%

COC(=O)CC(O)(CC(=O)OC)C(=O)OC
Activity (Mus musculus [1]): 29%

Cc1cn([C@H]2C[C@H](O)[C@@H](CO)O2)c(=O)[nH]c1=O [DOXRIBTIMINE]
Activity (Mus musculus [1]): 25.5% | LC50 (Artemia): > 1000 ppm

COC(=O)CC(O)(CC(=O)O)C(=O)OC (stereo not drawn)
Activity (Mus musculus [1]): 35.8%

CCOC(=O)CC(O)(CC(=O)O)C(=O)OCC (stereo not drawn)
Activity (Mus musculus [1]): -17.3%
